Laboratory results as given in patent US12521342B2, “Fast disintegrating tablet” (CUBOPHARM PTY LTD, priority 2017, dated 2026).
Like-named read-outs stand apart in the source and are kept apart here.

Legend:
[1] = pig, pH 7.4
[2] = cited from earlier work

CC(C)c1nc(N(C)S(C)(=O)=O)nc(-c2ccc(F)cc2)c1/C=C/[C@@H](O)C[C@@H](O)CC(=O)O [Rosuvastatin]
Total rosuvastatin absorbed per minute ([1]; 0.4 mg/1.5 ml): 0.6 ng/mL
Total rosuvastatin absorbed per minute ([1]; 0.8 mg/1.5 ml): 0.3 ng/mL

CNCC(O)c1ccc(O)c(O)c1 (stereo not drawn) [Adrenaline]
logP [2]: −0.5 to −1.2
